IC50 data for one compound are collected here from publication PMC13047053, “Crystal structure of human INPP5K with an allosteric inhibitor reveals the structural basis for species specific potency” (Scientific Reports, 2026).

Structures are written as SMILES.

This experiment addresses T1, human SHIP2 (Homo sapiens, UniProt O15357).
T1 construct: full-length human SHIP2 (aa 1–1 258) containing a C-terminal FLAG-tag; FLAG (C); made in house; host or cells: Expi293 cells (pcDNA3.4, transient)
T1 sequence (O15357 1-1258): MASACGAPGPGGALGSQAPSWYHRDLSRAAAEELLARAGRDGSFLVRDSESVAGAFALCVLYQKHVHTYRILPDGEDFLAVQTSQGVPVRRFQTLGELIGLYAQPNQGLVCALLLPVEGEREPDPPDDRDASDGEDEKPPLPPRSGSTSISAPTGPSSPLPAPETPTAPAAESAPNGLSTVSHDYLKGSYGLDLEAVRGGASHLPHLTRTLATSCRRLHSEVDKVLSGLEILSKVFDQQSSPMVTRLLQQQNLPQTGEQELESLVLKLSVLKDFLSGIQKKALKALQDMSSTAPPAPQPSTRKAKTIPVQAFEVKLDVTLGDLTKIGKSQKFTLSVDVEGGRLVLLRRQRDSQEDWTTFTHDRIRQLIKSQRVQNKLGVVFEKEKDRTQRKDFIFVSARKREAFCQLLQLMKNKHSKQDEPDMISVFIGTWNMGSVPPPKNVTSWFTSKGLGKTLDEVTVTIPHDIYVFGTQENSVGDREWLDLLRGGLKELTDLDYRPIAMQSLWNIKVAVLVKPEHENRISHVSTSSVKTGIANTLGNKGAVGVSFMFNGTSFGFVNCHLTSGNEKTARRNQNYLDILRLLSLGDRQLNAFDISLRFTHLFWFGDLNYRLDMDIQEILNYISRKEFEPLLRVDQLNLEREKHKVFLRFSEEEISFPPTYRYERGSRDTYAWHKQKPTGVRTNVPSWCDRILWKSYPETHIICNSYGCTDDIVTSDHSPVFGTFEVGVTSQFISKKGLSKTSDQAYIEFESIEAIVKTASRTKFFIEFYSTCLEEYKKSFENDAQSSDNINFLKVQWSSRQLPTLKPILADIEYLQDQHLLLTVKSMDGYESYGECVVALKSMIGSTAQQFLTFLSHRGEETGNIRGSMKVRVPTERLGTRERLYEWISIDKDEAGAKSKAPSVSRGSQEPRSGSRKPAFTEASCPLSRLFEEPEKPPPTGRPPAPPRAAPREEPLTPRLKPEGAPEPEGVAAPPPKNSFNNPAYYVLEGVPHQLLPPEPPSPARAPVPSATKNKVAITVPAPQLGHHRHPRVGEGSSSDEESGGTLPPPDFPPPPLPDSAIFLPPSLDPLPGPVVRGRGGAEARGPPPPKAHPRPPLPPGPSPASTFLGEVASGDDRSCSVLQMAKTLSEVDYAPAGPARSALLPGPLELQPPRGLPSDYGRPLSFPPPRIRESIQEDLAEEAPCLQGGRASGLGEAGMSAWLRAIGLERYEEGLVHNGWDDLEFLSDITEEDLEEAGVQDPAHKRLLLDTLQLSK
The experiment in a line: Inorganic phosphate detection assay for phosphatase inhibition. As to conditions: 20 µM diC8-PI(3,4,5)P3, 20 min. The format is biochemical. The text has this:
The protein purification is described in detail elsewhere. Briefly, full-length human INPP5K (amino acids 1–448, UniProt ID: Q9BT40), rat INPP5K (aa 1–446, UniProt ID: Q9R0B6), mouse INPP5K (aa 1–468, UniProt ID: Q8C5L6), hamster INPP5K (aa 1–453, UniProt ID: G3HTF6), guinea pig INPP5K (aa 1–473, UniProt ID: H0V8T7) containing an N-terminal FLAG-tag, full-length human SHIP2 (aa 1–1 258) containing a C-terminal FLAG-tag, and full-length human PIPP (amino acids 1–1 006) containing an N-terminal His8-tag were all cloned into the pcDNA3.4 expression vector and transiently expressed in Expi293 cells (Thermo Fisher Scientific). The PH domain of human TAPP1 (amino acids 180–404) containing an N-terminal GST-tag was expressed in a pGEX6P1 expression vector (GE Healthcare) in E. coli strain BL21 ((Merck KGaA, Darmstadt, Germany)), following IPTG induction at 37 °C for 5 h. All the FLAG-tagged INPP5Ks and hSHIP2 were purified using affinity columns containing DDDDK-tagged protein purification gel (MBL, Medical & Biological Laboratories Co., Ltd., Tokyo, Japan), followed by size-exclusion chromatography with Superdex 200 columns (GE Healthcare). His8-tagged hPIPP was purified using Ni–NTA Superflow (Qiagen) and Superdex 200 columns. The GST-tagged hTAPP1 domain was purified using a Glutathione Sepharose 4B (GE Healthcare) and Superdex 200 columns. The purity of the protein obtained was evaluated using SDS-PAGE.
The release of inorganic phosphate was measured using a PiPer Phosphate Assay Kit (Thermo Fisher Scientific), according to the manufacturer’s instructions, but with some modifications. Enzyme reactions were performed in a final volume of 10 µL per well in a 384-well nonbinding black plates (Greiner Bio-One International, GmbH, Kremsmünster, Austria). The reaction mixtures containing 20 µM diC8-PI(3,4,5)P₃ and each enzyme (human INPP5K, mouse INPP5K, rat INPP5K, hamster INPP5K, guinea pig INPP5K, human SHIP2, or human PIPP) in reaction buffer (50 mM Tris–HCl pH 7.0, 150 mM NaCl, 7.5 mM MgCl₂, 0.03% Igepal CA-630, 0.03% gelatin), with or without various concentrations of inhibitor, were incubated for 20 min at room temperature. The reactions were then stopped and detection reactions were initiated by adding 5 µL of detection mix 1 (60 mM EDTA, 12 U/mL maltose phosphorylase, and 0.6 mM maltose in 100 mM Tris–HCl pH 8.0). After incubation for 60 min at room temperature, 5 µL of detection mix 2 (8 U/mL glucose oxidase, 0.8 U/mL HRP, and 100 µM Amplex Red in 100 mM Tris–HCl pH 8.0) was added, and the mixture was incubated for a further 30 min at room temperature in the dark. The fluorescence generated was measured using an Envision plate reader at 531/590 nm (excitation/emission), and the percentage inhibition was calculated as described above.

The IC50 is the concentration that gives 50% inhibition. Low readings indicate greater potency in that assay, high ones weaker potency in that assay. With `CC(C)c1sc(NC(=O)c2ccccc2)c(C(=O)O)c1-c1ccccc1` [CPD-1], the half-maximal inhibitory concentration (IC50) was greater than 100 µM.
